According to PubChem BioAssay AID651670 (Sanford-Burnham Center for Chemical Genomics, 2012):
Activity calls are given as the source filed them.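 Rule for the calls: active = IC50 at or below 20 µM; inactive = the rest.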

What follows are molecules tested against Fatty acid synthase (Homo sapiens) (UniProt P49327) (assay: FAS thioesterase domain inhibitors, SAR follow-up, biochemical, endpoint fluorescence intensity, analogs (AID 651670)). Conditions: recombinant FAS-TE, OMFH fluorogenic substrate.
Sequence of Fatty acid synthase (Homo sapiens) (P49327 whole entry, looked up, the tested form may be a part): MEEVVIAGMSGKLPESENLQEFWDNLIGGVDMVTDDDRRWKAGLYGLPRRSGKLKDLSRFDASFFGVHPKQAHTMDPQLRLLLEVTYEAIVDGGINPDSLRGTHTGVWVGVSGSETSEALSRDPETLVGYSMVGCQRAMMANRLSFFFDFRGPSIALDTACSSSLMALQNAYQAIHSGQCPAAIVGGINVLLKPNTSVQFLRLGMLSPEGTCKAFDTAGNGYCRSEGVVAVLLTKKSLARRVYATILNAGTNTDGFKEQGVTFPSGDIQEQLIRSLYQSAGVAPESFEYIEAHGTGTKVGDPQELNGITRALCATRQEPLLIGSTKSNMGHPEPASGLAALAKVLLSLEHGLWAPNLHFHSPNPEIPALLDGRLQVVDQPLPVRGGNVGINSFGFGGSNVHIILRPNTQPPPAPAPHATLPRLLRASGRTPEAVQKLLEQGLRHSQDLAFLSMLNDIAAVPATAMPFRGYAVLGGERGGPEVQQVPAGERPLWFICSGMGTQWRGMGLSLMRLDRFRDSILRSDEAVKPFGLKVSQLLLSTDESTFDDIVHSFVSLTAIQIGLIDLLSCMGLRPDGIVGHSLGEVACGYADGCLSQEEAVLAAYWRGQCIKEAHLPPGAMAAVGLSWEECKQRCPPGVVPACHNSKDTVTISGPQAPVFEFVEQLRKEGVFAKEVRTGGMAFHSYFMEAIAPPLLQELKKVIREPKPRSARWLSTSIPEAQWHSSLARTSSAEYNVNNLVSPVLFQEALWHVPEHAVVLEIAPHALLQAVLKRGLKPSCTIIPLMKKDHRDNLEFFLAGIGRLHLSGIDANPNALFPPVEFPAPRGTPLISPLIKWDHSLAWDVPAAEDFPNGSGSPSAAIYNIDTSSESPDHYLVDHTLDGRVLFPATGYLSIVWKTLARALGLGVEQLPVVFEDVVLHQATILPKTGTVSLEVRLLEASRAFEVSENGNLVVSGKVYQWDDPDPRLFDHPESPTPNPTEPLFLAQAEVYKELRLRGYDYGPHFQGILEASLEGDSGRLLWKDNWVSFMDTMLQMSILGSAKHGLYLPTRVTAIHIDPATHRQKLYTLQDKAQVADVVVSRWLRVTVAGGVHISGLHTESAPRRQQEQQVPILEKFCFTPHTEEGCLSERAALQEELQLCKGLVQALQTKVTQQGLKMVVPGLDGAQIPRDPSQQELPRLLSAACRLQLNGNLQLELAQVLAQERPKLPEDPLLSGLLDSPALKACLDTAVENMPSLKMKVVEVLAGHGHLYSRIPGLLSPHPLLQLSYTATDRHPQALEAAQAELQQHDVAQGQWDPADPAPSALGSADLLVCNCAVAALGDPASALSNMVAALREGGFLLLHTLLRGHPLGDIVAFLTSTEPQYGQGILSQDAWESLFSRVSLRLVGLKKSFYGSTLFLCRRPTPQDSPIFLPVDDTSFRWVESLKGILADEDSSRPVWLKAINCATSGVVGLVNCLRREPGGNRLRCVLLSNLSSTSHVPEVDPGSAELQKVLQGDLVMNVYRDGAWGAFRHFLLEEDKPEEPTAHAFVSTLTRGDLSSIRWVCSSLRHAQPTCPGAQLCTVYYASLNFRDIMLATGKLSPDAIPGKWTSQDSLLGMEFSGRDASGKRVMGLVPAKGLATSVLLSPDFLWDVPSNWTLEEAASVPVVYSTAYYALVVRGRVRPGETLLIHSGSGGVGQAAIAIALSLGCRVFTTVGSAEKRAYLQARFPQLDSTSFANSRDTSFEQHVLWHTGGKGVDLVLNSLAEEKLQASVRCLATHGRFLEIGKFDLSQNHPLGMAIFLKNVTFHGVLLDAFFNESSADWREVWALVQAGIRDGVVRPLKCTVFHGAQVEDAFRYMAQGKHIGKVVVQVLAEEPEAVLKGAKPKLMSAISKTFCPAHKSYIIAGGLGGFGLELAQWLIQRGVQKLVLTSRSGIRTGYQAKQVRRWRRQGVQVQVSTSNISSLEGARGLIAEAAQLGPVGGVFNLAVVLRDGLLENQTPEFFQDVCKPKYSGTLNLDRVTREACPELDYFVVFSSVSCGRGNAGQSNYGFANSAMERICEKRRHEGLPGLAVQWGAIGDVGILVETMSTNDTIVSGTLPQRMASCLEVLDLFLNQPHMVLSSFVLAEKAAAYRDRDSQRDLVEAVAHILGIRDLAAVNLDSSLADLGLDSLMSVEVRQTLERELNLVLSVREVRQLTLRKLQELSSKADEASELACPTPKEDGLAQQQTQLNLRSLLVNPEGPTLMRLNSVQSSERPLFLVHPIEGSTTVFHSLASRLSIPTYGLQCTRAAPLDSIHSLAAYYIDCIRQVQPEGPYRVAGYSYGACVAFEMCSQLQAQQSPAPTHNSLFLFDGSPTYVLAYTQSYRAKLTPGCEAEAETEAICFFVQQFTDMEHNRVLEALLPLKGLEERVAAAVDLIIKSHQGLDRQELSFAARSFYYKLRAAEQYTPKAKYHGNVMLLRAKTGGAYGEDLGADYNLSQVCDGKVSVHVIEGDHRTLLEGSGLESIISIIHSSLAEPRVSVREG
`O=S(=O)(c1ccc(-c2csc(Cc3ccccc3)n2)cc1)N1CCOCC1` was tested, and the IC50 was 0.664 µM. With `Cc1nnc(SCC(=O)Nc2ncc(C(F)(F)F)cc2Cl)n1-c1ccccc1` the IC50 was > 80 µM (inactive). With `CCn1c(SCC(=O)Nc2ncc(C(F)(F)F)cc2Cl)nnc1-c1ccncc1` the IC50 was “inactive”. For `O=C(Nc1nc(-c2ccc(S(=O)(=O)N3CCOCC3)cc2)cs1)c1ccco1`, the IC50 was “inactive”. `O=C(Nc1nc(-c2ccc(S(=O)(=O)N3CCOCC3)cc2)cs1)c1cccs1` was tested, and the IC50 was “inactive”. `Cn1c(SCC(=O)Nc2ccccc2)nnc1-c1ccc(Cl)cc1` was tested, and the IC50 was > 80 µM (inactive). In the case of `Cn1c(SCC(=O)Nc2cccc(Cl)c2)nnc1-c1ccc(Cl)cc1`, the IC50 is reported as > 80 µM (inactive). `COc1ccc(CN(C)C(=O)Cc2ccc(S(=O)(=O)N3CCOCC3)s2)cc1OC` was tested, and the IC50 was > 80 µM (inactive). `O=S(=O)(c1ccc(-c2csc(N3CCCC3)n2)cc1)N1CCOCC1` showed an IC50 of 0.948 µM. `COc1ccc(-c2nnc(SCC(=O)Nc3ncc(C(F)(F)F)cc3Cl)n2C)cc1` was tested, and the IC50 was 1.96 µM. Work on `Cn1c(SCC(=O)Nc2ncc(C(F)(F)F)cc2Cl)nnc1-c1ccc(F)cc1` yielded an IC50 of 8.27 µM. `CCc1ccc(CN(C)C(=O)Cc2ccc(S(=O)(=O)N3CCCC3)s2)cc1` was tested, and the IC50 was 12.9 µM. For `Cn1c(Cc2ccccc2)nnc1SCC(=O)Nc1ncc(C(F)(F)F)cc1Cl`, the IC50 was “inactive”. In the case of `CN(Cc1cccc(F)c1)C(=O)Cc1ccc(S(=O)(=O)N2CCOCC2)s1`, the IC50 is reported as > 80 µM (inactive). For `Cc1ccc(NC(=O)Cc2nc(-c3ccc(S(=O)(=O)N4CCOCC4)cc3)cs2)cc1`, the IC50 was > 80 µM (inactive). With `CCCn1c(SCC(=O)Nc2ncc(C(F)(F)F)cc2Cl)nnc1-c1ccncc1` the IC50 was “inactive”. With `CC(=O)Nc1nc(-c2ccc(S(=O)(=O)N3CCOCC3)cc2)cs1` the IC50 was 15.3 µM. `CCCCn1c(SCC(=O)Nc2ncc(C(F)(F)F)cc2Cl)nnc1-c1ccc(OC)cc1` showed an IC50 of 0.67 µM. `Cc1ccccc1NC(=O)CSc1nnc(-c2ccc(Cl)cc2)n1C` was tested, and the IC50 was > 80 µM (inactive).
